Measurements from article PMC11594329, “Development of LAT1-Selective Nuclear Medicine Therapeutics Using Astatine-211” (International Journal of Molecular Sciences, 2024).

Key:
[1] = test system: LAT1-Tet/HEK293 cells; assay: Uptake versus LAT1 expression level (Dox-induced) in LAT1-Tet/HEK293 cells; assay type: cell-based; details: collection 30 min after treatment
Experimental: Each cell line was seeded in 24 wells at 1 × 10^5 cells/mL and allowed to become sub-confluent on the day of the experiment. Cells were washed with PBS (-) (Fujifilm Wako Pure Chemical, Osaka, Japan) prior to the addition of the compound, which was then replaced with uptake buffer. After treating the cells with the same dose, they were collected at predetermined time points. The cell dose was measured using a γ-counter (Wizard^2 2480; PerkinElmer, Waltham, MA, USA), and the protein content of the sample was determined. Protein content was measured using the BCA method, and the dose was corrected using the protein content (Protein Assay BCA kit, Fujifilm Wako Pure Chemical).
Figure 2 Comparison of uptake between the labeled compounds. (A) Relation between uptake ratio and LAT1 expression level. Uptake ratios were compared between LAT1-Tet/HEK293 cells. The Y-axis represents the uptake ratio, and the X-axis is concentration of Doxycycline (Dox) (TaKaRa Bio, Shiga, Japan). The collection time was 30 min after treatment. The expression of LAT1 increased with increasing amounts of Dox. (B) Comparison of uptake in PANC-1 cell line. The collection times were 0.5, 1, 5 and 10 min after treatment.
The PANC-1 cell line was obtained from the RIKEN Cell Bank and maintained in RPMI 1640 medium (Fujifilm Wako Pure Chemical, Osaka, Japan) supplemented with 10% inactivated fetal bovine serum (Thermo Fisher Scientific, Waltham, MA, USA). Mock/HEK293, LAT1/HEK293, and LAT2/HEK203 cells were kindly provided by Dr. Kanai. Cell lines controlling LAT1 expression were constructed using the Tet-on system. HEK293 cells were obtained from the RIKEN Cell Bank and maintained in E-MEM (Fujifilm Wako Pure Chemical) supplemented with 10% inactivated fetal bovine serum (Thermo Fisher Scientific) and non-essential amino acids (Fujifilm Wako Pure Chemical). The expression vectors were purchased from VectorBuilder, Inc. (Kanagawa, Japan). The purified viral particle genes were transfected into HEK293 cells. Drug selection and cloning of the cell line (Tet-LAT1/HEK293) were performed. […]

[2] = Tissue distribution in ICR mice (normal animals); assay type: in vivo
Text: ICR mice (male, 5 weeks old) were purchased from Japan SLC (Shizuoka, Japan) and acclimated for one week prior to use. The doses in the distribution experiments were as follows: ^211At-AAMT-O-Me-L (0.407 ± 0.005 MBq/mouse, 31.64 ± 0.76 g, n = 6), ^211At-AAMT-O-Me-D (0.351 ± 0.004 MBq/mouse, 31.44 ± 0.94 g, n = 6), ^211At-AAMT-O-Et-L (0.685 ± 0.010 MBq/mouse, 24.14 ± 3.31 g, n = 6), ^211At-AAMT-O-Pr-L (1.09 ± 0.06 MBq/mouse, 26.33 ± 0.39 g, n = 6)

[3] = test system: PANC-1 tumor model; assay: Tissue distribution in nude mice (PANC-1 tumor model); assay type: in vivo, BALB/c nu/nu mice; details: nude mice (PANC-1 tumor model)
Experimental: BALB/c nu/nu mice (male, 5 weeks old) were purchased from Japan SLC (Shizuoka, Japan) and subcutaneously transplanted at a density of 1 × 10^7 cells/mouse. PANC-1 cells that reached the logarithmic growth phase were transplanted subcutaneously by mixing a 1 × 10^8 cells/mL cell suspension with an equivalent volume of Matrigel (Corning, Corning, NY, USA) to obtain 1 × 10^7 cells per mouse. Experiments were performed after the size of the transplanted tumor had exceeded 50 mm^3. The doses in the distribution experiments were as follows: ^211At-AAMT-OH-L (0.501 ± 0.011 MBq/mouse, 19.91 ± 0.59 g, n = 3) and ^211At-AAMT-O-Me-L (0.384 ± 0.003 MBq/mouse, 19.18 ± 0.38 g, n = 6 for Table 3), ^211At-AAMT-O-Me-L (158.10 ± 2.94 kBq/mouse, 19.27 ± 0.64 g, n = 6) and ^211At-AAMT-O-Me-D (135.08 ± 2.35 kBq/mouse, 18.64 ± 0.97 g, n = 6), ^211At-AAMT-O-Et-L (0.682 ± 0.011 MBq/mouse, 20.25 ± 1.41 g, n = 6), ^211At-AAMT-O-Pr-L (0.927 ± 0.020 MBq/mouse, 21.74 ± 0.37 g, n = 6).

Question: For CCOc1ccc(C[C@](C)(N)C(=O)O)cc1[211At] [^211At-AAMT-O-Et-L], which “Uptake ratio versus LAT1 expression (doxycycline concentration)” value [1] is on record?
Answer: lower cellular uptake when LAT1 expression increased

Question: And the “Tissue distribution, Bladder” value ([2]; 1 h after injection)?
Answer: 53.22 ± 43.79 %ID/g

Question: What about the “Tissue distribution, Blood” value ([2]; 1 h after injection) of the same compound?
Answer: 2.03 ± 0.61 %ID/g

Question: What about the “Tissue distribution, Bone” value ([2]; 1 h after injection) of the same compound?
Answer: 0.71 ± 0.32 %ID/g

Question: And the “Tissue distribution, Brain” value ([2]; 1 h after injection)?
Answer: 0.37 ± 0.07 %ID/g

Question: And the “Tissue distribution, Cecum” value ([2]; 1 h after injection)?
Answer: 0.68 ± 0.25 %ID/g

Question: And the “Tissue distribution, Colon” value ([2]; 1 h after injection)?
Answer: 8.32 ± 4.87 %ID/g

Question: What about the “Tissue distribution, Heart” value ([2]; 1 h after injection) of the same compound?
Answer: 6.14 ± 3.75 %ID/g

Question: What about the “Tissue distribution, Kidney” value ([2]; 1 h after injection) of the same compound?
Answer: 4.70 ± 1.68 %ID/g

Question: And the “Tissue distribution, Liver” value ([2]; 1 h after injection)?
Answer: 1.41 ± 0.33 %ID/g

Question: And the “Tissue distribution, Lung” value ([2]; 1 h after injection)?
Answer: 4.47 ± 1.34 %ID/g

Question: What about the “Tissue distribution, Pancreas” value ([2]; 1 h after injection) of the same compound?
Answer: 7.31 ± 4.45 %ID/g

Question: What about the “Tissue distribution, Salivary glands” value ([2]; 1 h after injection) of the same compound?
Answer: 7.08 ± 2.00 %ID/g

Question: And the “Tissue distribution, Small intestine” value ([2]; 1 h after injection)?
Answer: 12.85 ± 7.35 %ID/g

Question: What about the “Tissue distribution, Spleen” value ([2]; 1 h after injection) of the same compound?
Answer: 2.90 ± 0.95 %ID/g

Question: What about the “Tissue distribution, Stomach” value ([2]; 1 h after injection) of the same compound?
Answer: 19.50 ± 5.82 %ID/g

Question: And the “Tissue distribution, Testis” value ([2]; 1 h after injection)?
Answer: 2.36 ± 0.28 %ID/g

Question: And the “Tissue distribution, Thymus” value ([2]; 1 h after injection)?
Answer: 1.14 ± 0.68 %ID/g

Question: What about the “Tissue distribution, Thyroid” value ([2]; 1 h after injection) of the same compound?
Answer: 8.98 ± 4.12 %ID/g

Question: What about the “Tissue distribution, Bladder” value ([2]; 3 h after injection) of the same compound?
Answer: 21.28 ± 15.54 %ID/g

Question: What about the “Tissue distribution, Blood” value ([2]; 3 h after injection) of the same compound?
Answer: 0.87 ± 0.27 %ID/g

Question: What about the “Tissue distribution, Bone” value ([2]; 3 h after injection) of the same compound?
Answer: 1.00 ± 0.18 %ID/g

Question: And the “Tissue distribution, Brain” value ([2]; 3 h after injection)?
Answer: 0.13 ± 0.05 %ID/g

Question: And the “Tissue distribution, Cecum” value ([2]; 3 h after injection)?
Answer: 1.67 ± 0.24 %ID/g

Question: And the “Tissue distribution, Colon” value ([2]; 3 h after injection)?
Answer: 1.75 ± 0.49 %ID/g

Question: And the “Tissue distribution, Heart” value ([2]; 3 h after injection)?
Answer: 1.87 ± 0.80 %ID/g

Question: And the “Tissue distribution, Kidney” value ([2]; 3 h after injection)?
Answer: 1.56 ± 0.13 %ID/g

Question: What about the “Tissue distribution, Liver” value ([2]; 3 h after injection) of the same compound?
Answer: 1.06 ± 0.21 %ID/g

Question: What about the “Tissue distribution, Lung” value ([2]; 3 h after injection) of the same compound?
Answer: 4.93 ± 1.95 %ID/g

Question: What about the “Tissue distribution, Pancreas” value ([2]; 3 h after injection) of the same compound?
Answer: 1.20 ± 0.40 %ID/g

Question: And the “Tissue distribution, Salivary glands” value ([2]; 3 h after injection)?
Answer: 15.05 ± 7.81 %ID/g

Question: What about the “Tissue distribution, Small intestine” value ([2]; 3 h after injection) of the same compound?
Answer: 3.21 ± 0.88 %ID/g

Question: What about the “Tissue distribution, Spleen” value ([2]; 3 h after injection) of the same compound?
Answer: 2.09 ± 1.08 %ID/g

Question: And the “Tissue distribution, Stomach” value ([2]; 3 h after injection)?
Answer: 38.74 ± 10.11 %ID/g

Question: What about the “Tissue distribution, Testis” value ([2]; 3 h after injection) of the same compound?
Answer: 1.20 ± 0.36 %ID/g

Question: What about the “Tissue distribution, Thymus” value ([2]; 3 h after injection) of the same compound?
Answer: 0.26 ± 0.17 %ID/g

Question: What about the “Tissue distribution, Thyroid” value ([2]; 3 h after injection) of the same compound?
Answer: 20.22 ± 6.28 %ID/g

Question: And the “Tissue distribution, Bladder” value ([3]; 1 h after injection)?
Answer: 15.41 ± 4.39 %ID/g

Question: And the “Tissue distribution, Blood” value ([3]; 1 h after injection)?
Answer: 3.63 ± 0.43 %ID/g

Question: And the “Tissue distribution, Bone” value ([3]; 1 h after injection)?
Answer: 1.92 ± 0.21 %ID/g

Question: And the “Tissue distribution, Brain” value ([3]; 1 h after injection)?
Answer: 0.65 ± 0.11 %ID/g

Question: What about the “Tissue distribution, Cecum” value ([3]; 1 h after injection) of the same compound?
Answer: 2.36 ± 0.52 %ID/g

Question: What about the “Tissue distribution, Colon” value ([3]; 1 h after injection) of the same compound?
Answer: 3.80 ± 0.50 %ID/g

Question: And the “Tissue distribution, Heart” value ([3]; 1 h after injection)?
Answer: 4.41 ± 0.46 %ID/g

Question: What about the “Tissue distribution, Kidney” value ([3]; 1 h after injection) of the same compound?
Answer: 6.23 ± 0.94 %ID/g

Question: What about the “Tissue distribution, Liver” value ([3]; 1 h after injection) of the same compound?
Answer: 2.54 ± 0.28 %ID/g

Question: What about the “Tissue distribution, Lung” value ([3]; 1 h after injection) of the same compound?
Answer: 9.69 ± 1.20 %ID/g

Question: What about the “Tissue distribution, Pancreas” value ([3]; 1 h after injection) of the same compound?
Answer: 4.56 ± 0.82 %ID/g

Question: And the “Tissue distribution, Salivary glands” value ([3]; 1 h after injection)?
Answer: 13.69 ± 2.13 %ID/g

Question: What about the “Tissue distribution, Small intestine” value ([3]; 1 h after injection) of the same compound?
Answer: 4.80 ± 0.63 %ID/g

Question: And the “Tissue distribution, Spleen” value ([3]; 1 h after injection)?
Answer: 10.32 ± 4.17 %ID/g

Question: What about the “Tissue distribution, Stomach” value ([3]; 1 h after injection) of the same compound?
Answer: 33.25 ± 8.36 %ID/g

Question: What about the “Tissue distribution, Testis” value ([3]; 1 h after injection) of the same compound?
Answer: 3.29 ± 0.07 %ID/g

Question: What about the “Tissue distribution, Thyroid” value ([3]; 1 h after injection) of the same compound?
Answer: 24.50 ± 4.40 %ID/g

Question: And the “Tissue distribution, Tumor” value ([3]; 1 h after injection)?
Answer: 5.64 ± 0.91 %ID/g

Question: And the “Tissue distribution, Bladder” value ([3]; 3 h after injection)?
Answer: 12.03 ± 3.42 %ID/g

Question: What about the “Tissue distribution, Blood” value ([3]; 3 h after injection) of the same compound?
Answer: 2.23 ± 0.06 %ID/g

Question: And the “Tissue distribution, Bone” value ([3]; 3 h after injection)?
Answer: 1.41 ± 0.16 %ID/g

Question: And the “Tissue distribution, Brain” value ([3]; 3 h after injection)?
Answer: 0.36 ± 0.10 %ID/g

Question: And the “Tissue distribution, Cecum” value ([3]; 3 h after injection)?
Answer: 2.80 ± 0.56 %ID/g

Question: And the “Tissue distribution, Colon” value ([3]; 3 h after injection)?
Answer: 3.63 ± 0.34 %ID/g

Question: What about the “Tissue distribution, Heart” value ([3]; 3 h after injection) of the same compound?
Answer: 5.15 ± 0.95 %ID/g

Question: What about the “Tissue distribution, Kidney” value ([3]; 3 h after injection) of the same compound?
Answer: 3.74 ± 0.78 %ID/g

Question: What about the “Tissue distribution, Liver” value ([3]; 3 h after injection) of the same compound?
Answer: 1.93 ± 0.23 %ID/g

Question: And the “Tissue distribution, Lung” value ([3]; 3 h after injection)?
Answer: 10.67 ± 1.28 %ID/g

Question: What about the “Tissue distribution, Pancreas” value ([3]; 3 h after injection) of the same compound?
Answer: 2.01 ± 0.20 %ID/g

Question: And the “Tissue distribution, Salivary glands” value ([3]; 3 h after injection)?
Answer: 19.70 ± 2.93 %ID/g

Question: And the “Tissue distribution, Small intestine” value ([3]; 3 h after injection)?
Answer: 3.23 ± 0.22 %ID/g

Question: And the “Tissue distribution, Spleen” value ([3]; 3 h after injection)?
Answer: 13.31 ± 2.43 %ID/g

Question: And the “Tissue distribution, Stomach” value ([3]; 3 h after injection)?
Answer: 18.47 ± 2.59 %ID/g

Question: What about the “Tissue distribution, Testis” value ([3]; 3 h after injection) of the same compound?
Answer: 3.32 ± 0.33 %ID/g

Question: And the “Tissue distribution, Thyroid” value ([3]; 3 h after injection)?
Answer: 31.26 ± 11.36 %ID/g

Question: And the “Tissue distribution, Tumor” value ([3]; 3 h after injection)?
Answer: 5.24 ± 1.39 %ID/g
